{"source": "ChEMBL document CHEMBL5465560", "about": "“Selectivity Literature for EUbOPEN Chemogenomic Library” (2024)", "key": {"[1]": {"target": "Dual specificity mitogen-activated protein kinase kinase 2 (Homo sapiens) (UniProt P36507)", "sequence (P36507 whole entry)": "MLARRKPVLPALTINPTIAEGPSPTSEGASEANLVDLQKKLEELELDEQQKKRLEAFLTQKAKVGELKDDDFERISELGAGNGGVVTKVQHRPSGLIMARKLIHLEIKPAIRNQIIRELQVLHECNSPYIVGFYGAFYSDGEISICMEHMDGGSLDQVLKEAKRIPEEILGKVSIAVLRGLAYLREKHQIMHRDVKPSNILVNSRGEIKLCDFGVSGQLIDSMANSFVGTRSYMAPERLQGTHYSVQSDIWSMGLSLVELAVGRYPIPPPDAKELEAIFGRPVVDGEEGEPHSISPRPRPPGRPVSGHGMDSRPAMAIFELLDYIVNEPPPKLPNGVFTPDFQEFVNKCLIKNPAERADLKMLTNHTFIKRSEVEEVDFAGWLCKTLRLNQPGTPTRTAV"}, "[2]": {"target": "Mitogen-activated protein kinase kinase kinase 10 (Homo sapiens) (UniProt Q02779)", "assay": "Selectivity interaction (Kinase panel (KiNativ target engagement assay in Jurkat cells)) EUB0001635a MAP3K10", "format": "cell-based", "settings": "Selectivity number of off-targets 0.0, Selectivity number of targets 233.0, Source Knowledge https://www.sciencedirect.com/science/article/pii/S2451945619300674?via%3Dihub, at 1 µM"}, "[3]": {"target": "Wee1-like protein kinase (Homo sapiens) (UniProt P30291)", "assay": "Selectivity interaction (Kinase panel (KiNativ target engagement assay in Jurkat cells)) EUB0001635a WEE1", "format": "cell-based", "settings": "at 1 µM"}, "[4]": {"target": "Histone-lysine N-methyltransferase, H3 lysine-36 specific (Homo sapiens) (UniProt Q96L73)", "sequence (Q96L73 whole entry)": "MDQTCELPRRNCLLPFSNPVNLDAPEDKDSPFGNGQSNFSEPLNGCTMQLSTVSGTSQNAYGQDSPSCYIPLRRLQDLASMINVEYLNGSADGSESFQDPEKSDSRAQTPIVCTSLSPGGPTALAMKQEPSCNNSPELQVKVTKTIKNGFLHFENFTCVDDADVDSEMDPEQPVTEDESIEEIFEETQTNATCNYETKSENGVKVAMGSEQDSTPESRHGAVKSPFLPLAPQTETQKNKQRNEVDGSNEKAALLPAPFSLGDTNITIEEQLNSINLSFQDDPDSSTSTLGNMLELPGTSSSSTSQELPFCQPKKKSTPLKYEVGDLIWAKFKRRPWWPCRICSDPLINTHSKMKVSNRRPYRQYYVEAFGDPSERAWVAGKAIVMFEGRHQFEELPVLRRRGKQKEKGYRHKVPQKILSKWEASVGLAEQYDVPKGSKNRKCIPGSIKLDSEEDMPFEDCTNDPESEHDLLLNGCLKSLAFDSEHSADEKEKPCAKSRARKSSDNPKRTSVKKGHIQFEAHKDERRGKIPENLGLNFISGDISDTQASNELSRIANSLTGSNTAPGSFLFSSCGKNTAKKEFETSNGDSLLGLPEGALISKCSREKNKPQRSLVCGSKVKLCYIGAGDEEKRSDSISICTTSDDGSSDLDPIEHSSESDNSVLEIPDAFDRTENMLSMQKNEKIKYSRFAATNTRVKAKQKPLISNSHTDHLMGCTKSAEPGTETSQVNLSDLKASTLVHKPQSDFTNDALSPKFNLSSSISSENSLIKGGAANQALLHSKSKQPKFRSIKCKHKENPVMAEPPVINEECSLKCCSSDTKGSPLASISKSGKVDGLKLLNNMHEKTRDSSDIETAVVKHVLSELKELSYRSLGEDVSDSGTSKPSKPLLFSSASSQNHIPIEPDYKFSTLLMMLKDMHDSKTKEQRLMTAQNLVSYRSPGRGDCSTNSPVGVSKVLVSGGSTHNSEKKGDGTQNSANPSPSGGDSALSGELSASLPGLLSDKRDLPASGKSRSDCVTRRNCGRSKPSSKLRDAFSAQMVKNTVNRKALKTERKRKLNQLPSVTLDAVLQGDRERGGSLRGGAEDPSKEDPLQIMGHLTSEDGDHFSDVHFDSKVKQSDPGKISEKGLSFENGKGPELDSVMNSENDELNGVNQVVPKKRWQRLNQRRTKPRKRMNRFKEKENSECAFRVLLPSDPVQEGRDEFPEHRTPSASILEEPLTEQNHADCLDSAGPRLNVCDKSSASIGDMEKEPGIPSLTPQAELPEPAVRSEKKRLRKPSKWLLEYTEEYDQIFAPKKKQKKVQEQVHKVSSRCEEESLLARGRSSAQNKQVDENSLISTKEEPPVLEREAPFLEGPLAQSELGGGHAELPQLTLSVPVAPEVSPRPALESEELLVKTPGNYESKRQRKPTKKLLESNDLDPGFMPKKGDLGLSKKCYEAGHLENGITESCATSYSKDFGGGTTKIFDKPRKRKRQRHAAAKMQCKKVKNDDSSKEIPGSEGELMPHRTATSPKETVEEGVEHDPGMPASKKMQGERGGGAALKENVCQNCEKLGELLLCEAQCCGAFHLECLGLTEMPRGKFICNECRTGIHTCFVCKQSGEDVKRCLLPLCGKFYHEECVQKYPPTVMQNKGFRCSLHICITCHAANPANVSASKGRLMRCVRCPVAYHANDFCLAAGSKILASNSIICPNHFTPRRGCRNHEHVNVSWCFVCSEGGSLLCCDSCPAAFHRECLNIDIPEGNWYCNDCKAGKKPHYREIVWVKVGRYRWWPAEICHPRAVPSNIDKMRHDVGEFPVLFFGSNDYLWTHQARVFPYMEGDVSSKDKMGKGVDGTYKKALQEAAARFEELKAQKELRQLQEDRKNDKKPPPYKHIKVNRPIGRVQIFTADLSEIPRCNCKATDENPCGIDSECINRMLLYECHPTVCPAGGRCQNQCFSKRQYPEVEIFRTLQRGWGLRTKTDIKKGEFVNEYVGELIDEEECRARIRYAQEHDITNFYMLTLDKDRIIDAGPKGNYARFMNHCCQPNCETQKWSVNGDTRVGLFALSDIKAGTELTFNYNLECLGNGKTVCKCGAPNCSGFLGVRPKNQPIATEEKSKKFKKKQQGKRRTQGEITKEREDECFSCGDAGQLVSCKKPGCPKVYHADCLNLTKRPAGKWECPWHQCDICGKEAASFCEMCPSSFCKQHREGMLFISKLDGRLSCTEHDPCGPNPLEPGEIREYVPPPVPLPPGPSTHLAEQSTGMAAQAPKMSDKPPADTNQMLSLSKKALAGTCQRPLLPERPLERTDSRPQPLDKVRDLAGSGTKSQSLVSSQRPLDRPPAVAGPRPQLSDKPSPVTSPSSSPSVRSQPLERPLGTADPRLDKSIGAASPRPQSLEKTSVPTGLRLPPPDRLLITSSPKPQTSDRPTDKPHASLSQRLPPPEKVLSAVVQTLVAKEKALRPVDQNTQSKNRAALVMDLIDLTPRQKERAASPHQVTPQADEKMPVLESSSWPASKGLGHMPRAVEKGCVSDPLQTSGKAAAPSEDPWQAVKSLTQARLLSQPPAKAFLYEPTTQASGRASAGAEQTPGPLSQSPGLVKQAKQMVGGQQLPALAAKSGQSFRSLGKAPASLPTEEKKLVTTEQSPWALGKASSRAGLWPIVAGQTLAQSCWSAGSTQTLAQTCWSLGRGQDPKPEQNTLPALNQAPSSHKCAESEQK", "assay": "Selectivity interaction (Transferase panel (protein, RNA, and DNA methyltransferases. and EP300 (acetyltransferase))) EUB0000270b NSD1"}, "[5]": {"target": "Serine/threonine-protein kinase 24 (Homo sapiens) (UniProt Q9Y6E0)", "assay": "Selectivity interaction (Kinase panel (Invitrogen)) EUB0000639a STK24", "settings": "at 200 nM"}, "[6]": {"target": "Mitogen-activated protein kinase 8 (Homo sapiens, UniProt P45983)", "sequence (P45983 whole entry)": "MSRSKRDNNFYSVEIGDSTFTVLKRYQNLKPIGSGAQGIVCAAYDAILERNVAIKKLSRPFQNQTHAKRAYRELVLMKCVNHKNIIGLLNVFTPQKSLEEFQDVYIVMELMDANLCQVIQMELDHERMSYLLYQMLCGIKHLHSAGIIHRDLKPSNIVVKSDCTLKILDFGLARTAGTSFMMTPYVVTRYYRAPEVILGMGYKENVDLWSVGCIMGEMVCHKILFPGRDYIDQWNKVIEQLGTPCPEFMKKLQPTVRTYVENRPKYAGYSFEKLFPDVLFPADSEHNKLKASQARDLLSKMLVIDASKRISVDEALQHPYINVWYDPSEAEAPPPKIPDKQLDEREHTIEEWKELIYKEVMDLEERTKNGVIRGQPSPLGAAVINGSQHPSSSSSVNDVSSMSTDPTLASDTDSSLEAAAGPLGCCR", "assay": "Selectivity interaction (ActivX KiNativ screen (kinase selectivity in THP-1 cell lysates)) EUB0000639a MAPK8", "format": "subcellular", "settings": "lysate"}, "[7]": {"target": "Tyrosine-protein kinase Blk (Homo sapiens) (UniProt P51451)", "assay": "Selectivity interaction (Kinase screening (Upstate/Millipore)) EUB0000604a BLK"}, "[8]": {"target": "T1, Serine/threonine-protein kinase D3 (Homo sapiens) (UniProt O94806)", "T1 sequence (whole entry)": "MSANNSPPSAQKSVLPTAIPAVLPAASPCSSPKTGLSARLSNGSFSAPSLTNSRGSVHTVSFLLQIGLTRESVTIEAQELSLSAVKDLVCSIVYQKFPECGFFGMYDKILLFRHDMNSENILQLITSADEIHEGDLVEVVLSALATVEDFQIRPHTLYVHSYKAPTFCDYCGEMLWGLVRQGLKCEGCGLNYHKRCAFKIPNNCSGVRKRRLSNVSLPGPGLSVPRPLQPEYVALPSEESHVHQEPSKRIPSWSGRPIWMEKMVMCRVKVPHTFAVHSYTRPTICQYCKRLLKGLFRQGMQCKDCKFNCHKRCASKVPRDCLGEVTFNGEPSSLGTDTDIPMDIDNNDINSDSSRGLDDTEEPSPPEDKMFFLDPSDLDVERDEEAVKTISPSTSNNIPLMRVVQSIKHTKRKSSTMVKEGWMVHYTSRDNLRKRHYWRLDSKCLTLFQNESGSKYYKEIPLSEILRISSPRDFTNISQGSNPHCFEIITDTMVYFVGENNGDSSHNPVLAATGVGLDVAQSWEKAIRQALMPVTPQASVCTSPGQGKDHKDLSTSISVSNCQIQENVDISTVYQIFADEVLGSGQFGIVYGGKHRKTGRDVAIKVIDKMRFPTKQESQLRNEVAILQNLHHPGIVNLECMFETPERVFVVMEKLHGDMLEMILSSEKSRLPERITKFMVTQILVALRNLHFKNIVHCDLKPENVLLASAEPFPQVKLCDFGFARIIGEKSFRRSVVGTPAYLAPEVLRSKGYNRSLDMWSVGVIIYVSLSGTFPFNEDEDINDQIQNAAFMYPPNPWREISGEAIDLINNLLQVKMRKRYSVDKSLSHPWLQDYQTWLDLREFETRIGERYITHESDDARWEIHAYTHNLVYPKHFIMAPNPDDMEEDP", "assay": "Selectivity interaction (KinomeScan (DiscoverX)) EUB0000618a PRKD3", "settings": "at 10 µM"}, "[9]": {"target": "T2, Serine/threonine-protein kinase STK11 (Homo sapiens) (UniProt Q15831)", "T2 sequence (whole entry)": "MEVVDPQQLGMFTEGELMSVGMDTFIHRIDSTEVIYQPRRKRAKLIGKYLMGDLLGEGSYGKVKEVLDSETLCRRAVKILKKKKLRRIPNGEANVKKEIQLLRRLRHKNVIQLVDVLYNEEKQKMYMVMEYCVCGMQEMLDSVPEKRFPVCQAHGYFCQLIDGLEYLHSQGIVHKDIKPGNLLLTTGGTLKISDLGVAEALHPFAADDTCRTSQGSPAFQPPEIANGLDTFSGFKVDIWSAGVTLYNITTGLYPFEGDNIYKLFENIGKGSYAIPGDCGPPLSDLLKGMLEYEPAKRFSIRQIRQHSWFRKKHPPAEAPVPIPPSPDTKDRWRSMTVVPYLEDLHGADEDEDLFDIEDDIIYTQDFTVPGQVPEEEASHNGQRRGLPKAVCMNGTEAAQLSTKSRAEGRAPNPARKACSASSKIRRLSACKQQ", "settings": "at 10 µM"}, "[10]": {"target": "5'-AMP-activated protein kinase catalytic subunit alpha-1 (Homo sapiens, UniProt Q13131)", "assay": "Selectivity interaction (ActivX KiNativ screen (ex vivo kinase selectivity in human PBMCs)) EUB0001619a PRKAA1", "format": "cell-based", "settings": "PBMC, at 1 µM"}, "[11]": {"target": "T3, Tyrosine-protein kinase ITK/TSK (Homo sapiens) (UniProt Q08881)", "T3 sequence (whole entry)": "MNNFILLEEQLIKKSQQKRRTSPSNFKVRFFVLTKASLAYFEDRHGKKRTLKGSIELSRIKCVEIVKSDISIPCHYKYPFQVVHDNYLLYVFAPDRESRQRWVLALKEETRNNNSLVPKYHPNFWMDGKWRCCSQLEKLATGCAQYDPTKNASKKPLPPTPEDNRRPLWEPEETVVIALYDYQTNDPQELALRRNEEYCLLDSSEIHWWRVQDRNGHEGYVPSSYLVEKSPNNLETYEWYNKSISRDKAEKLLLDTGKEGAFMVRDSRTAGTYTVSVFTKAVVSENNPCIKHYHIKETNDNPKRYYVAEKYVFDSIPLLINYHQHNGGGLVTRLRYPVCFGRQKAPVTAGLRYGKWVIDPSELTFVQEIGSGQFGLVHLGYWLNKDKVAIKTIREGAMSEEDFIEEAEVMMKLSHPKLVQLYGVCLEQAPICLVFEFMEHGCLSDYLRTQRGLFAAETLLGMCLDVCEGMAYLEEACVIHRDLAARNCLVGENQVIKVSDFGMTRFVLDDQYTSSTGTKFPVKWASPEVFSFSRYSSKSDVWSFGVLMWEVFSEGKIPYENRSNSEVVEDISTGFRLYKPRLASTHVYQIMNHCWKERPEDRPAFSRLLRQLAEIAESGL", "assay": "Selectivity interaction (KinomeScan (DiscoverX)) EUB0000695a ITK", "settings": "at 100 nM"}, "[12]": {"target": "Vascular endothelial growth factor receptor 2 (Homo sapiens, UniProt P35968)", "sequence (P35968 whole entry)": "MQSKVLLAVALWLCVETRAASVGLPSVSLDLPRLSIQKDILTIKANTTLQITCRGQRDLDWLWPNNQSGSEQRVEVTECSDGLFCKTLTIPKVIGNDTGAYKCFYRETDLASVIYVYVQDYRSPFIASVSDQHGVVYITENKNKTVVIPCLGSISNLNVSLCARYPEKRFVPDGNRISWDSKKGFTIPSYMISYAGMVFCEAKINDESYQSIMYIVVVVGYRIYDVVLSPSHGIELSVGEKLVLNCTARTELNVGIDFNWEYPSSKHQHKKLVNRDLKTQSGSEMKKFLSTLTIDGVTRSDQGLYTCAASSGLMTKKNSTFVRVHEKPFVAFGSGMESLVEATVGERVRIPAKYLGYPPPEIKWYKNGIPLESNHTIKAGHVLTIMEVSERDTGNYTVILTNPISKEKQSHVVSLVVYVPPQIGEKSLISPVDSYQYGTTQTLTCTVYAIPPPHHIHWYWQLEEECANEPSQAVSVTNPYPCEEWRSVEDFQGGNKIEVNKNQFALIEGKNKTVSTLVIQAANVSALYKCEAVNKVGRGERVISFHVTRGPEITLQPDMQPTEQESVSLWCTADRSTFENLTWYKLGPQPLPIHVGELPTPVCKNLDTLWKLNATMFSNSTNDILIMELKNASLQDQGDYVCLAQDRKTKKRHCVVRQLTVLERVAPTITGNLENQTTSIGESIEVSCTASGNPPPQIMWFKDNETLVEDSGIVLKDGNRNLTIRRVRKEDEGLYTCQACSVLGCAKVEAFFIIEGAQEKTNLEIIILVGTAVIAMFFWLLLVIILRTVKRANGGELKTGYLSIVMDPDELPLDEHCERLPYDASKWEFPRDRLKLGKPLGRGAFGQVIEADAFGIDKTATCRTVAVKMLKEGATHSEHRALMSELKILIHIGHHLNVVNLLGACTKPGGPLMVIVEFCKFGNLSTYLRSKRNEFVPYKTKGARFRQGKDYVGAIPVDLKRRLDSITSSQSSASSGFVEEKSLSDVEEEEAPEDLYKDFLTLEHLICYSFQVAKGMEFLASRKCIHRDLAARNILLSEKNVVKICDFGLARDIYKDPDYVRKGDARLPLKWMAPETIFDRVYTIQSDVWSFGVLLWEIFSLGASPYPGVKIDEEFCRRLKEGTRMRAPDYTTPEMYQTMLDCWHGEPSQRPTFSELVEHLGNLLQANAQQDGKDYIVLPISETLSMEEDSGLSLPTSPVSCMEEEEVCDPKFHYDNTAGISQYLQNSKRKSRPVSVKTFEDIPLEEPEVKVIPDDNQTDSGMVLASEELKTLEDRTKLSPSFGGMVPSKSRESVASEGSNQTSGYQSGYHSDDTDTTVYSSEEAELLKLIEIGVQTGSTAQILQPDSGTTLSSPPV", "assay": "Selectivity interaction (Kinase panel (Z-LYTE Assay)) EUB0001632a KDR", "settings": "at 10 µM"}}}
{"compound": "CC(=O)Nc1cccc(-n2c(=O)n(C3CC3)c(=O)c3c(Nc4ccc(I)cc4F)n(C)c(=O)c(C)c32)c1", "values": [{"measurement": "Kdapp", "setting": "[1]", "value": 9, "unit": "nM"}]}
{"compound": "C=CC(=O)Nc1ccc(C(=O)Nc2[nH]nc3c2CN(C(=O)N[C@H](CN(C)C)c2ccccc2)C3(C)C)cc1", "values": [{"measurement": "% of engagement", "setting": "[2]", "value": -31.2, "unit": "%"}, {"measurement": "% of engagement", "setting": "[3]", "value": 24, "unit": "%"}]}
{"compound": "Cc1cc(CN)cc(C)c1-c1ncn(C)c1-c1cncn1C", "values": [{"measurement": "% activity", "setting": "[4]; at 1 µM", "value": "> 90", "unit": "%"}, {"measurement": "% activity", "setting": "[4]; at 10 µM", "value": "> 80", "unit": "%"}]}
{"compound": "CC[C@@H]1[C@H](F)C(=O)N[C@@H]1COc1nccc2cc(C(N)=O)c(OC)cc12", "note": "[ZIMLOVISERTIB]", "values": [{"measurement": "% of inhibition", "setting": "[5]", "value": 23.2, "unit": "%"}, {"measurement": "% of inhibition", "setting": "[6]; at 0.01 µM", "value": 13.3, "unit": "%"}, {"measurement": "% of inhibition", "setting": "[6]; at 0.04 µM", "value": -1.4, "unit": "%"}, {"measurement": "% of inhibition", "setting": "[6]; at 0.2 µM", "value": 1.6, "unit": "%"}, {"measurement": "% of inhibition", "setting": "[6]; at 1 µM", "value": 27.7, "unit": "%"}, {"measurement": "% of inhibition", "setting": "[6]; at 5 µM", "value": 57.5, "unit": "%"}]}
{"compound": "Cc1cnc(Nc2ccc(F)cc2Cl)nc1-c1c[nH]c(C(=O)N[C@H](CO)c2cccc(Cl)c2)c1", "values": [{"measurement": "% of inhibition", "setting": "[7]", "value": 7, "unit": "%"}]}
{"compound": "O[C@H]1CC[C@H](Nc2ncc3nc(Nc4c(F)cc(F)cc4F)n([C@H]4CCOC4)c3n2)CC1", "values": [{"measurement": "% of control", "setting": "[8]", "value": 84, "unit": "%"}]}
{"compound": "Cc1cc([C@@H](C)Nc2ccccc2C(=O)O)c2nc(N3CCOCC3)cc(=O)n2c1", "note": "[AZD-6482]", "values": [{"measurement": "% of control", "setting": "[9]", "value": 98, "unit": "%"}]}
{"compound": "N#Cc1cccc(-c2c[nH]c3ncnc(N4CCOCC4)c23)c1", "values": [{"measurement": "% of inhibition", "setting": "[10]", "value": 33, "unit": "%"}]}
{"compound": "Cc1cc(F)c(C(=O)Nc2cccc(-c3nncn3C(C)C)n2)cc1-n1cnc(C2CC2)c1", "values": [{"measurement": "% of control", "setting": "[11]", "value": 100, "unit": "%"}]}
{"compound": "Cn1cc(-n2cnc3c(NCc4nc5cc(Cl)c(Cl)cc5[nH]4)nc(N4CCOCC4)nc32)cn1", "values": [{"measurement": "% of control", "setting": "[12]", "value": 0.298, "unit": "%"}]}
